BigSolDB 2.1

OCCCCCCO
solubility (mole fraction)
Details | 283.15 K | 288.15 K | 293.15 K | 298.15 K | 303.15 K
in DMAc | 0.0205 | 0.0298 | 0.0469 | 0.0688 | 0.0939
in methanol | 0.365 | 0.428 | 0.51 | 0.585 | 0.698
in n-butanol | 0.316 | 0.389 | 0.479 | 0.577 | 0.689
